# Measurements as given in patent US6358885B1, “Substituted phenylheterocyclic herbicides” (Mississippi State University, priority 1992, dated 2002).
# Tests used:
# bedstraw [1] = assay: Test B preemergence/postemergence greenhouse plant response rating 0 to 10; assay type: in vivo, Galium aparine; conditions: POSTEMERGENCE
# How it was run: (§1)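 Test chemicals were sprayed onto freshly planted seed and, concurrently, onto young plants between the one and four leaf stage. After a twelve- to sixteen-day greenhouse period, each species was visually compared with untreated controls.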
# chickweed = assay: as above; assay type: in vivo, Stellaria media; conditions: POSTEMERGENCE
# How it was run: as §1
# corn [2] = assay: as above; assay type: in vivo, Zea mays; conditions: for Plant response rating, Corn: 0 to 10 scale
# How it was run: as §1
# sugar beet = assay: as above; assay type: in vivo, Beta vulgaris; conditions: 0 to 10 scale
# How it was run: as §1
# wild buckwheat = assay: as above; assay type: in vivo, Polygonum convolvulus; conditions: 0 to 10 scale
# How it was run: as §1
# bedstraw [3] = assay: Test C preemergence/postemergence greenhouse plant response rating 0 to 100; assay type: in vivo, Galium aparine; conditions: POSTEMERGENCE
# How it was run: (§2)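 Compounds in non-phytotoxic solvent went onto sandy loam before emergence (seeded one day earlier) or onto plants at the one-to-four leaf stage. Duck salad was treated via flood water (~2.5 cm, maintained) over silt loam.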
# corn [4] = assay: as above; assay type: in vivo, Zea mays; conditions: POSTEMERGENCE
# How it was run: as §2
# cotton = assay: as above; assay type: in vivo, Gossypium hirsutum; conditions: POSTEMERGENCE
# How it was run: as §2
# downy brome = assay: as above; assay type: in vivo, Bromus tectorum; conditions: POSTEMERGENCE
# How it was run: as §2
# giant foxtail = assay: as above; assay type: in vivo, Setaria faberii; conditions: POSTEMERGENCE
# How it was run: as §2
# morningglory = assay: as above; assay type: in vivo, Ipomoea hederacea; conditions: POSTEMERGENCE
# How it was run: as §2
# sorghum = assay: as above; assay type: in vivo, Sorghum bicolor; conditions: POSTEMERGENCE
# How it was run: as §2
# velvetleaf = assay: as above; assay type: in vivo, Abutilon theophrasti; conditions: POSTEMERGENCE
# How it was run: as §2
# wheat = assay: as above; assay type: in vivo, Triticum aestivum; conditions: POSTEMERGENCE
# How it was run: as §2
# wild oat = assay: as above; assay type: in vivo, Avena fatua; conditions: POSTEMERGENCE
# How it was run: as §2
# duck salad = assay: Test C flood test plant response rating 0 to 100; assay type: in vivo, Heteranthera limosa
# How it was run: as §2
# barnyardgrass = assay: Test C flood test plant response rating 0 to 100; assay type: in vivo, Echinochloa crus-galli
# How it was run: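 Compounds in non-phytotoxic solvent applied preemergence to sandy loam one day after planting, postemergence at the 1–4 leaf stage, or to ~2.5 cm floodwater over silt loam.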
# [5] = POSTEMERGENCE section, flood test, Rate 1 g/ha
# [6] = Rate 16 g/ha, under POSTEMERGENCE head (flood test species)
# [7] = flood test species listed under POSTEMERGENCE, 62 g/ha, 0 to 100 scale
smiles,measurement,setting,value
CC(C)N1C(=O)COc2cc(F)c(-c3nn4c(c3Cl)CCCC4)cc21 [Compound 31],"Plant response rating, Bedstraw","bedstraw [1]; Rate 10 g/ha, 0 to 10 scale",10
same,"Plant response rating (0 to 10 scale), Bedstraw",bedstraw [1]; Rate 50 g/ha,10
same,"Plant response rating, Chickweed","chickweed; Rate 10 g/ha, 0 to 10 scale",10
same,"Plant response rating (0 to 10 scale), Chickweed",chickweed; Rate 50 g/ha,10
same,"Plant response rating, Corn","corn [2]; POSTEMERGENCE, Rate 10 g/ha",4
same,"Plant response rating (0 to 10 scale), Corn","corn [2]; POSTEMERGENCE, Rate 50 g/ha",3
same,"Plant response rating, Corn","corn [2]; PREEMERGENCE, Rate 50 g/ha",0
same,"Plant response rating, Sugar beet","sugar beet; POSTEMERGENCE, Rate 10 g/ha",10
same,"Plant response rating, Sugar beet","sugar beet; POSTEMERGENCE, Rate 50 g/ha",10
same,"Plant response rating, Sugar beet","sugar beet; PREEMERGENCE, Rate 50 g/ha",10
same,"Plant response rating, Wild buckwheat","wild buckwheat; POSTEMERGENCE, Rate 10 g/ha",10
same,"Plant response rating, Wild buckwheat","wild buckwheat; POSTEMERGENCE, Rate 50 g/ha",10
same,"Plant response rating, Wild buckwheat","wild buckwheat; PREEMERGENCE, Rate 50 g/ha",10
same,"Plant response rating, Bedstraw","bedstraw [3]; 62 g/ha, 0 to 100 scale",100
same,"Plant response rating (0 to 100), Bedstraw",bedstraw [3]; Rate 1 g/ha,75
same,"Plant response rating (0 to 100), Bedstraw",bedstraw [3]; Rate 4 g/ha,85
same,"Plant response rating (0 to 100), Bedstraw",bedstraw [3]; Rate 16 g/ha,100
same,"Plant response rating, Corn","corn [4]; 62 g/ha, 0 to 100 scale",50
same,"Plant response rating (0 to 100), Corn",corn [4]; Rate 1 g/ha,20
same,"Plant response rating (0 to 100), Corn",corn [4]; Rate 4 g/ha,30
same,"Plant response rating (0 to 100), Corn",corn [4]; Rate 16 g/ha,40
same,"Plant response rating, Cotton","cotton; 62 g/ha, 0 to 100 scale",100
same,"Plant response rating (0 to 100), Cotton",cotton; Rate 1 g/ha,90
same,"Plant response rating (0 to 100), Cotton",cotton; Rate 4 g/ha,100
same,"Plant response rating (0 to 100), Cotton",cotton; Rate 16 g/ha,100
same,Plant response rating Downy Brome,"downy brome; 62 g/ha, 0 to 100 scale",40
same,"Plant response rating (0 to 100), Downy Brome",downy brome; Rate 1 g/ha,10
same,"Plant response rating (0 to 100), Downy Brome",downy brome; Rate 4 g/ha,20
same,"Plant response rating (0 to 100), Downy Brome",downy brome; Rate 16 g/ha,40
same,"Plant response rating, Giant foxtail","giant foxtail; 62 g/ha, 0 to 100 scale",40
same,"Plant response rating (0 to 100), Giant foxtail",giant foxtail; Rate 1 g/ha,10
same,"Plant response rating (0 to 100), Giant foxtail",giant foxtail; Rate 4 g/ha,20
same,"Plant response rating (0 to 100), Giant foxtail",giant foxtail; Rate 16 g/ha,30
same,"Plant response rating, Morningglory","morningglory; 62 g/ha, 0 to 100 scale",100
same,"Plant response rating (0 to 100), Morningglory",morningglory; Rate 1 g/ha,70
same,"Plant response rating (0 to 100), Morningglory",morningglory; Rate 4 g/ha,100
same,"Plant response rating (0 to 100), Morningglory",morningglory; Rate 16 g/ha,100
same,"Plant response rating, Sorghum","sorghum; 62 g/ha, 0 to 100 scale",50
same,"Plant response rating (0 to 100), Sorghum",sorghum; Rate 1 g/ha,20
same,"Plant response rating (0 to 100), Sorghum",sorghum; Rate 4 g/ha,40
same,"Plant response rating (0 to 100), Sorghum",sorghum; Rate 16 g/ha,50
same,"Plant response rating, Velvetleaf","velvetleaf; 62 g/ha, 0 to 100 scale",100
same,"Plant response rating (0 to 100), Velvetleaf",velvetleaf; Rate 1 g/ha,85
same,"Plant response rating (0 to 100), Velvetleaf",velvetleaf; Rate 4 g/ha,95
same,"Plant response rating (0 to 100), Velvetleaf",velvetleaf; Rate 16 g/ha,100
same,"Plant response rating, Wheat","wheat; 62 g/ha, 0 to 100 scale",40
same,"Plant response rating (0 to 100), Wheat",wheat; Rate 1 g/ha,10
same,"Plant response rating (0 to 100), Wheat",wheat; Rate 4 g/ha,30
same,"Plant response rating (0 to 100), Wheat",wheat; Rate 16 g/ha,30
same,"Plant response rating, Wild oat","wild oat; 62 g/ha, 0 to 100 scale",50
same,"Plant response rating (0 to 100), Wild oat",wild oat; Rate 1 g/ha,10
same,"Plant response rating (0 to 100), Wild oat",wild oat; Rate 4 g/ha,30
same,"Plant response rating (0 to 100), Wild oat",wild oat; Rate 16 g/ha,30
same,"Plant response rating (0 to 100), Duck salad",duck salad; [5],0
same,"Plant response rating (0 to 100), Duck salad","duck salad; POSTEMERGENCE section, flood test, Rate 4 g/ha",0
same,"Plant response rating (0 to 100), Duck salad",duck salad; [6],40
same,Plant response rating Duck salad,duck salad; [7],40
same,"Plant response rating (0 to 100), Barnyardgrass",barnyardgrass; [5],20
same,"Plant response rating (0 to 100), Barnyardgrass","barnyardgrass; Rate 4 g/ha, under POSTEMERGENCE head (flood test species)",65
same,"Plant response rating (0 to 100), Barnyardgrass",barnyardgrass; [6],90
same,"Plant response rating, Barnyardgrass",barnyardgrass; [7],100
